Results taken from PMC6829886, “Inhibition of Non-Small Cell Lung Cancer Cells by Oxy210, an Oxysterol-Derivative that Antagonizes TGFβ and Hedgehog Signaling” (Cells, 2019).
Read-outs that look alike come from different tables or passages of the source.

Key:
[1] = test system: A549 cells; test: TGFβ-induced EMT in A549 cells (morphology, Q-RT-PCR); assay type: cell-based, human
Method: Total RNA was extracted with the RNeasy Plus Mini Kit from Qiagen (Hilden, Germany) according to the manufacturer’s instructions. One microgram of RNA was reverse-transcribed using an iScript Reverse Transcription Supermix from Bio-Rad Laboratories (Hercules, CA, USA) to make single-stranded cDNA. The cDNAs were then mixed with Qi SYBR Green Supermix (Bio-Rad) for quantitative RT-PCR assay using a Bio-Rad I-cycler IQ quantitative thermocycler. All PCR samples were prepared in triplicate wells in a 96-well plate. After 40 cycles of PCR, melt curves were examined in order to ensure primer specificity. Fold changes in gene expression were calculated using the ΔΔCt method. Primers used for mouse were as follows: Oaz1 (5′-CCACTGCTTCGCCAGAGAG-3′) and (5′-CCCGGACCCAGGTTACTA-3′), Gli1 (5′- […]-3′ and 5′- GCT GATCCAGCCTAAGGTTCTC-3′), Ptch1 (5′-CCATCGGCGACAAGAACC-3′ and 5′-[…]-3′), Thbs1 (5′-[…]-3′ and 5′-CGGGGATCAGGTTGGCATT-3′), Cryab (5′-[…]-3′ and 5′-[…]-3′), Egr2 (5′-[…]-3′ and 5′-[…]-3′), CTGF (5′-GGGCCTCTTCTGCGATTTC-3′ and 5′-[…]-3′).
Primers used for human were as follows: GAPDH (5′- […]-3′ and 5′- […]-3′), SHH (5′- CGGAGCGAGGAAGGGAAAG-3′) and (5′- […]-3′), GLI1 (5′- GAAGCCGAGCCGAGTATC-3′ and 5′-[…]-3′), GLI2 (5′-[…]-3′ and 5′-[…]-3′), Fn-EDA (5′- […]-3′ and 5′- […]-3′), E-Cadherin (5′- […]-3′ and 5′- TCCCAGGCGTAGACCAAGA-3′), SNAIL (5′- […]-3′ and 5′- […]-3′), N-Cadherin (5′- […]-3′ and 5′- […]-3′), Vimentin (5′- […]-3′ and 5′- […]-3′), ZO-1 (5′- […]-3′ and 5′- […]-3′), MMP2 (5′- […]-3′ and 5′- […]-3′), MMP9 (5′-[…]-3′ and 5′-[…]).
Figure 8 Inhibition of TGFβ-induced EMT in NSCLC cells. (a) A549 cells were treated with TGFβ in the absence or presence of Oxy210 in RPMI 1640 containing 2% FBS for 5 days. The cells were washed with PBS and then fixed with 2% formaldehyde in PBS at room temperature for 15 min. Formaldehyde was then removed, cells washed with PBS and stained with 4% Trypan Blue for 5 min. Phase contrast images were obtained using a 20X objective lens. A549 (b,c) and H2030 (d) cells were treated in RPMI 1640 containing 0.1% FBS overnight and then pretreated for 2 h with Oxy210 in RPMI 1640 containing 0.1% FBS. Next, cells were treated with TGFβ in the absence or presence of Oxy210. After 48 h, RNA was extracted and analyzed by Q-RT-PCR for the expression of the genes as indicated and normalized to GAPDH expression. Data from a representative experiment are reported as the mean of triplicate determinations ± SD (** p < 0.01 vs. TGFβ treated cells; ## p < 0.01 vs. control).

[2] = test system: TβRI; test: Smad responsive luciferase reporter (CAGA12-Luc) in R1BL17 cells transfected with TGFβRI (WT or TD mutant); assay type: cell-based, mink; details: 20 h
[3] = test system: Liver X Receptor (LXR); assay type: cell-based; details: mouse
[4] = test system: Liver X Receptor (LXR); test: LXR activity, summary of drug-like properties; assay type: cell-based
[5] = Dose escalation study with repeated once daily oral dosing for 7 days in mice; assay type: in vivo; details: once daily oral 50, 200 and 400 mg/kg for 7 days
Method: In an initial assessment of drug-like properties of Oxy210, we performed a pharmacokinetic (PK) study in mice. Oxy210, formulated in 3% DMSO + 7% Ethanol + 5% PEG400 + 85% corn oil, was administered to balb/c mice by oral gavage as a single dose of 50 mg/kg. Plasma samples were taken at 10 min, 30 min, 1 h, 2 h, 4 h, and 8h, followed by LC/MS analysis. […] Additional PK studies in mice were performed with Oxy210 in a dose escalation study with repeated once daily oral dosing (50 mg/kg, 200 mg/kg and 400 mg/kg) for 7 days.

[6] = test system: H2030 cells; test: Cell counting (proliferation) assay in H2030 cells; assay type: cell-based, human; details: for IC50 / IC90: Homo sapiens, NCI-H2030
Method: A549 and H2030 cells cultured in RPMI 1640 containing 5% FBS in 12 well-plates at 20% confluence were treated with Oxy210 for 6 days and then trypsinized, spun down and resuspended in fresh medium. For the Carboplatin (CP) and Oxy210 co-treatment experiments, A549 cells cultured in RPMI 1640 containing 2% FBS in 12 well-plates at 20% confluence were treated with CP at different concentrations in the presence or absence of Oxy210 for 6 days. For the TGFβ-induced drug resistance assay, A549 cells cultured in RPMI 1640 containing 2% FBS in 12 well-plates at 10% confluence were pre-treated with TGFβ1 alone or together with Oxy210 for 3 days, and then treated with 20 μM CP for 4 days. An aliquot of cell suspension was applied to a hemocytometer and the cells were then counted under a light microscope.
Statistical analyses were performed using the StatView 5 program (SAS Institute, Cary, NC, USA). All p values were calculated using ANOVA and Fisher’s projected least significant difference (PLSD) significance test. A value of p < 0.05 was considered significant. The IC 50 dose-response curves shown in Figure 4b and Figure 7a–c were modeled using a five-parameter logistic model. This model allows for asymmetric curves and automatically estimates the mean maximum and minimum response. Based on this model, IC 50 values were estimated corresponding to the dose halfway between min and max response. Models of dose versus response and dose versus log response were also evaluated (see Supplementary Materials). The R square statistic was computed as a measure of model fit.
Figure 7 Inhibition of NSCLC cell proliferation by Oxy210. A549 (a), (c) and H2030 (b) cells were treated with the test agents as indicated in RPMI 1640 containing 5% FBS for 5 days and then were trypsinized and counted as described in Methods and Materials section. Data from a representative experiment are reported as the mean of triplicate determinations ± SD (* p < 0.05 vs. control; ** p < 0.01 vs. control).

Question: Which results are given for C[C@]12CC[C@H]3[C@@H](CC=C4C[C@@H](O)CC[C@@]43C)[C@@H]1CC[C@@H]2[C@](C)(O)CCc1cccnc1 [Oxy210, (3S,8S,9S,10R,13S,14S,17S)-17-((R)-2-hydroxy-4-(pyridin-3-yl)butan-2-yl)-10,13-dimethyl-2,3,4,7,8,9,10,11,12,13,14,15,16,17-tetradecahydro-1H-cyclopenta[a]phenanthren-3-ol]?
Answer: TGFβ-induced EMT morphology changes [1]: reversed; expression of E-Cad downregulated by TGFβ ([1]; 48 h): partially rescued; expression of mesenchymal genes upregulated by TGFβ (SNAIL, ZO-1, Fn-EDA, N-Cad) ([1]; 48 h): inhibited the expression of mesenchymal genes; mRNA expression of MMP2 and MMP9 induced by TGFβ ([1]; 48 h): inhibited the mRNA expression; activity of Smad responsive reporter stimulated by TGFβ-activated RI or ligand independent RI_TD [2]: significantly inhibited; ABCA1 expression [3]: absence of ABCA1 expression; LXR activity [4]: devoid of undesirable Liver X Receptor (LXR) activity; PK linearity [5]: linear PK parameters and exposure; tolerability [5]: well tolerated and apparently safe; IC10 Estimate, dataset 3 - Fig 7b, log 10 scale Y ([6]; H2030 cells/well, log 10 scale Y): 1.89; IC10 Estimate, dataset 3 - Fig 7b, original scale Y ([6]; H2030 cells/well, original scale Y): 0.42 µM; IC50 ([6]; H2030 cells, 5% FBS, ± SE, read-out: IC50, anti-proliferative effect (cell counting)): 1.66 ± 0.25 µM; IC50 ([6]; H2030 cells/well, log 10 scale Y, read-out: IC 50 Estimate, dataset 3 - Fig 7b, log 10 scale Y (converted)): 2.52 µM; IC90 ([6]; H2030 cells/well, log 10 scale Y, read-out: IC90 Estimate, dataset 3 - Fig 7b, log 10 scale Y (converted)): 3.37 µM; IC90 ([6]; H2030 cells/well, original scale Y, read-out: IC90 Estimate, dataset 3 - Fig 7b, original scale Y): 4.09 µM
